Several values for one entry are separate records, joined by “and”; a condition that tells them apart may be missing. Equal entries are not always repeated.
Legend:
HCoV-229E = assay: Viral CPE assay in MRC-5 cells (CellTiter Glo); type: cell-based
[1] = test system: SARS-CoV-2 Washington strain 1 (USA_WA1/2020); type: cell-based

For `COc1cccc2[nH]c(C(=O)N[C@@H](CC(C)C)C(=O)N[C@@H](C[C@@H]3CCNC3=O)C(=O)CO)cc12` [PF-00835231-00], which “% Well Effect” value (HCoV-229E; 0.000938825 uM, minus efflux inhibitor, EC50 run 17-Apr-2020) is on record?
Its value is -3.33% and -1.20%.

And the “% Well Effect” value (HCoV-229E; 0.000938825 uM, minus efflux inhibitor, EC50 run 24-Apr-2020)?
The value was 15.19% and 11.15%.

What about the “% Well Effect” value (HCoV-229E; 0.000949267 uM, minus efflux inhibitor, EC50 run 11-Apr-2020) of the same compound?
Its value is 5.04% and 4.22% and -1.30% and -1.77%.

What about the “% Well Effect” value (HCoV-229E; 0.00297326 uM, minus efflux inhibitor, EC50 run 17-Apr-2020) of the same compound?
The value was -5.19% and 4.25%.

What about the “% Well Effect” value (HCoV-229E; 0.00297326 uM, minus efflux inhibitor, EC50 run 24-Apr-2020) of the same compound?
The value was 5.52% and -0.60%.

And the “% Well Effect” value (HCoV-229E; 0.00300158 uM, minus efflux inhibitor, EC50 run 11-Apr-2020)?
The value was 4.34% and 3.84% and 1.15% and -4.56%.

And the “% Well Effect” value (HCoV-229E; 0.007813 uM, minus efflux inhibitor, EC50 run 30-Apr-2020)?
Its value is 0.98% and 0.83%.

What about the “% Well Effect” value (HCoV-229E; 0.00941631 uM, minus efflux inhibitor, EC50 run 17-Apr-2020) of the same compound?
The value was 1.75% and 4.31%.

What about the “% Well Effect” value (HCoV-229E; 0.0298215 uM, minus efflux inhibitor, EC50 run 17-Apr-2020) of the same compound?
The value was 23.90% and 29.75%.

And the “% Well Effect” value (HCoV-229E; 0.0298215 uM, minus efflux inhibitor, EC50 run 24-Apr-2020)?
The value was -2.80% and 5.98%.

What about the “% Well Effect” value (HCoV-229E; 0.0300105 uM, minus efflux inhibitor, EC50 run 11-Apr-2020) of the same compound?
The value was 22.27% and 25.51% and 18.77% and 17.89%.

What about the “% Well Effect” value (HCoV-229E; 0.03125 uM, minus efflux inhibitor, EC50 run 30-Apr-2020) of the same compound?
Its value is 10.60% and 5.67%.

And the “% Well Effect” value (HCoV-229E; 0.0625 uM, minus efflux inhibitor, EC50 run 30-Apr-2020)?
The value was 34.90% and 38.53%.

And the “% Well Effect” value (HCoV-229E; 0.0944446 uM, minus efflux inhibitor, EC50 run 17-Apr-2020)?
Its value is 86.84% and 95.70%.

And the “% Well Effect” value (HCoV-229E; 0.0944446 uM, minus efflux inhibitor, EC50 run 24-Apr-2020)?
Its value is 19.60% and 23.25%.

What about the “% Well Effect” value (HCoV-229E; 0.0948933 uM, minus efflux inhibitor, EC50 run 11-Apr-2020) of the same compound?
The value was 74.74% and 86.04% and 87.19% and 85.97%.

What about the “% Well Effect” value (HCoV-229E; 0.09491 uM, minus efflux inhibitor, EC50 run 3-Apr-2020) of the same compound?
The value was 60.58% and 66.48% and 51.57% and 67.27%.

And the “% Well Effect” value (HCoV-229E; 0.299106 uM, minus efflux inhibitor, EC50 run 17-Apr-2020)?
The value was 107.11% and 115.95%.

And the “% Well Effect” value (HCoV-229E; 0.299106 uM, minus efflux inhibitor, EC50 run 24-Apr-2020)?
Its value is 59.17% and 71.11%.

And the “% Well Effect” value (HCoV-229E; 0.300053 uM, minus efflux inhibitor, EC50 run 11-Apr-2020)?
Its value is 109.88% and 116.26% and 114.19% and 115.61%.

And the “% Well Effect” value (HCoV-229E; 0.300105 uM, minus efflux inhibitor, EC50 run 3-Apr-2020)?
Its value is 99.66% and 103.56% and 105.08% and 101.55%.

What about the “% Well Effect” value (HCoV-229E; 0.5 uM, minus efflux inhibitor, EC50 run 30-Apr-2020) of the same compound?
The value was 102.45% and 101.06%.

What about the “% Well Effect” value (HCoV-229E; 0.947269 uM, minus efflux inhibitor, EC50 run 17-Apr-2020) of the same compound?
The value was 102.69% and 111.34%.

And the “% Well Effect” value (HCoV-229E; 0.947269 uM, minus efflux inhibitor, EC50 run 24-Apr-2020)?
The value was 73.36% and 89.87%.

And the “% Well Effect” value (HCoV-229E; 0.948767 uM, minus efflux inhibitor, EC50 run 11-Apr-2020)?
The value was 109.36% and 109.78% and 108.04% and 112.87%.

And the “% Well Effect” value (HCoV-229E; 0.948933 uM, minus efflux inhibitor, EC50 run 3-Apr-2020)?
Its value is 100.40% and 104.08% and 100.39% and 101.88%.

What about the “% Well Effect” value (HCoV-229E; 1 uM, minus efflux inhibitor, EC50 run 30-Apr-2020) of the same compound?
The value was 105.73% and 102.25%.

And the “% Well Effect” value (HCoV-229E; 3 uM, minus efflux inhibitor, EC50 run 11-Apr-2020)?
The value was 107.90% and 109.07% and 108.64% and 109.54%.

What about the “% Well Effect” value (HCoV-229E; 3 uM, minus efflux inhibitor, EC50 run 17-Apr-2020) of the same compound?
The value was 101.53% and 109.98%.

What about the “% Well Effect” value (HCoV-229E; 3 uM, minus efflux inhibitor, EC50 run 24-Apr-2020) of the same compound?
The value was 75.89% and 83.80%.

What about the “% Well Effect” value (HCoV-229E; 3 uM, plus 0.5 uM efflux inhibitor, EC50 run 22-may-2020) of the same compound?
The value was 87.68%.

And the “% Well Effect” value (HCoV-229E; 3 uM, plus 0.5 uM efflux inhibitor, EC50 run 24-Apr-2020)?
Its value is 59.97%.

What about the “% Well Effect” value (HCoV-229E; 3.00053 uM, minus efflux inhibitor, EC50 run 3-Apr-2020) of the same compound?
The value was 99.82% and 106.83% and 102.14% and 104.18%.

And the “% Well Effect” value (HCoV-229E; 9.48767 uM, minus efflux inhibitor, EC50 run 3-Apr-2020)?
The value was 101.96% and 104.70% and 102.25% and 105.36%.

And the “% Well Effect” value (HCoV-229E; 30 uM, minus efflux inhibitor, EC50 run 3-Apr-2020)?
The value was 102.99% and 107.66% and 105.96% and 105.84%.

And the “% Well Effect” value [1]?
Its value is 0.795%.
